The text below walks through data of patent US11389429B2, “Use of carbamate compound for preventing, alleviating or treating myotonia” (SK BIOPHARMACEUTICALS CO., LTD., priority 2017, dated 2022).

This assay concerns myotonia induced by anthracene-9-carboxylic acid (9-AC) in Sprague-Dawley rats. Description: Myotonia induction model by drug (9-AC) treatment, righting reflex test. It is filed as in vivo, rat. Further details: Average Righting reflex time (TRR): unit not given here. Conditions: for Average Righting reflex time (TRR): 9-AC given 20 minutes later. The text has this:
The efficacy for myotonia of the compounds of the above Formula 1 can be confirmed by the use of known models. For example, the efficacy of the compounds of the above Formula 1 may be evaluated in a myotonia model caused by anthracene-9-carboxylic acid (9-AC). Anthracene-9-carboxylic acid can cause myotonic conditions by blocking the chloride channel-1 of muscle cells. Myotonic conditions are induced by intraperitoneal injection once to experimental animals (rats), and can be evaluated by measuring the righting reflex time. Righting reflex is a reflex behavior in which the animal's body returns from an abnormal position to a normal position, and the degree of myotonia can be evaluated by measurement of righting reflex behavior due to abnormality of muscle tension/relaxation after 9-AC treatment. Specifically, the degree of spasticity is evaluated by measuring the time that it takes for the four feet of the experimental animal to land normally when the experimental animal is turned upside down and the posture is straightened (time of righting reflex, TRR).
In the experimental animal model of myotonia induction by drug (9-AC) treatment, it was reported that the time to return to normal posture after righting reflex was delayed when measuring the rat's spasticity conditions using righting reflex (Desaphy et al., 2013, Neuropharmacology, 65: 21-27).
As an experimental model, Sprague-Dawley rats (350-400 g, 10 weeks old, a total of 36 males) were used (Orient Bio Inc.). The drug anthracene-9-carboxylic acid (9-AC) used to induce myotonia is a drug that inhibits chloride channel-1 of skeletal muscle cells and induces hyperexcitation of muscle cells. The control group (30% PEG300) or test compound was intraperitoneally administered to the rat once in each dose (15, 20 mg/kg). Test compounds were diluted in 30% PEG300 solution to a final dose of 5 ml/kg. After 20 minutes of administration of control group or test compound, 0.3% NaHCO3 solution containing 6 mg/ml of 9-AC was intraperitoneally administered by 10 ml/kg. After administration of 9-AC, righting reflex tests were performed at 30 minutes and 1 hour, respectively, and the time to return to normal posture (time of righting reflex, TRR) was measured.
Statistical analysis was used for the one-way ANOVA (1-way ANOVA) and Tukey's multiple comparison test, and outliers were excluded through the ROUT outlier analysis test (Q=1%) (in the 30-minute test, excluding each one in the control group and the 20 mg/kg treatment group; in the 1-hour test, excluding one in the 20 mg/kg treatment group). The results were derived from three repeated experiments.

For the compound `NC(=O)O[C@@H](Cn1ncnn1)c1ccccc1Cl` [Test compound, carbamic acid (R)-1-(2-chlorophenyl)-2-tetrazol-2-yl-ethyl ester], the “Average Righting reflex time (TRR)” value is, setting by setting: (15 mg/kg intraperitoneal, measured 30 minutes after 9-AC, n = 9) 2.282 ± 0.304; (15 mg/kg intraperitoneal, measured 1 hour after 9-AC, n = 9) 4.978 ± 0.944; (20 mg/kg intraperitoneal, measured 30 minutes after 9-AC, n = 8) 1.85 ± 0.266; (20 mg/kg intraperitoneal, measured 1 hour after 9-AC, n = 8) 2.515 ± 0.328. Moreover, the “Time to return to normal posture compared to the control group (statistical significance)” value (20 mg/kg, at both 30 minutes and 1 hour after 9-AC, P<0.05, one-way ANOVA and Tukey's test) is recorded as “significant time reduction effect”. Also, the “Time to return to normal posture compared to the control group in righting reflex test” value (15 and 20 mg/kg, 30 minutes and 1 hour after spasticity was induced) is “decrease in time to return to normal posture”.
